Assay results as given in BindingDB's records for patent US10053455 (Ab Science, 2018).

Target: Tyrosine-protein kinase SYK (Homo sapiens, UniProt P43405)
Test: In Vitro SYK Inhibition Assay
Conditions: pH 7.8; 25 °C
Protocol: SYK kinase was purified as a full length protein in a baculovirus system near homogeneity. All kinase assays were performed with the Kinase TK (tyrosine kinase) HTRF (Homogeneous Time Resolved Fluorescence) assay developed by Cisbio international. […] Reactions were initiated upon introduction of the enzyme and terminated with the addition of one reaction volume (25 μl) of HTRF detection buffer. Plates were incubated for one hour at room temperature and the time resolved Fluorescence resonance energy transfer signal was measured in a Pherastar FS microplate reader (BMG Labtech). All data were the average of triplicate results with a standard deviation <10%.

## O=C1NCCN(c2ncc(-c3cccc(Nc4nccc(-c5cccnc5)n4)c3)o2)C12CC2 [US10053455, 019]
  IC50: < 500 nM
